Test system: CAL51 cell proliferation
Assay: Cell Titer Glo Proliferation Assay (CAL51)
Type: cell-based, human
Conditions: Homo sapiens, CAL-51; CAL51 cell proliferation, 72 h, Cell Titer Glo luminescence; read-out: Act. Level
Description: Cell Titer Glo Proliferation Assay. Triple negative breast cancer cell line CAL51 was purchased from DSMZ. […] Allcell lines were maintained in growth media consisting of 90% high glucose Dulbecco's Modified Eagle Medium or RPMI1640 (Invitrogen), 10% fetal bovine serum (Hyclone), and 2 mM L-glutamine (Invitrogen). […] After overnight culture, compound stock (30 mM) was diluted serially in DMSO, further diluted in growth media, and was added to each well as a 10× concentrated solution in a volume of 11 μL, mixed, and allowed to incubate with cells. The compound vehicle (DMSO) was maintained at a final concentration of 0.2% in all wells. After 72 h, 100 μL of Cell Titer Glo solution (Promega) was added to each well of the 96-well plate. The plate was placed on a shaker for 2 minutes. After 10 minutes incubation, the luminescence signal was detected with Envision microplate reader (Perkin Elmer).

SMILES	IC50
CNC(=O)c1ccc(Nc2nc(OC3CCCC3)c3c(-c4ccc(-c5ncc[nH]5)cc4)c[nH]c3n2)c(OC)c1 [Example 48, 4-(5-(4-(1H-imidazol-2-yl)phenyl)-4-(cyclopentyloxy)-7H-pyrrolo[2,3-d]pyrimidin-2-ylamino)-3-methoxy-N-methylbenzamide]	< 100 nM
CNC(=O)c1ccc(Nc2nc(OC3CCCC3)c3c(-c4ccc(NC(N)=O)cc4)c[nH]c3n2)c(OC)c1 [Example 39, 4-(4-(cyclopentyloxy)-5-(4-ureidophenyl)-7H-pyrrolo[2,3-d]pyrimidin-2-ylamino)-3-methoxy-N-methylbenzamide]	< 100 nM
COCCOc1nc(Nc2ccc(C(=O)N(C)C)cc2OC)nc2[nH]cc(-c3cnn(C)c3)c12 [Example 221, 3-methoxy-4-(4-(2-methoxyethoxy)-5-(1-methyl-1H-pyrazol-4-yl)-7H-pyrrolo[2,3-d]pyrimidin-2-ylamino)-N,N-dimethylbenzamide]	< 100 nM
COc1cc(C(=O)NCCO)ccc1Nc1nc(OC2CC2)c2c(-c3ccc4nc(C)oc4c3)c[nH]c2n1 [Example 216, 4-(4-cyclopropoxy-5-(2-methylbenzo[d]oxazol-6-yl)-7H-pyrrolo[2,3-d]pyrimidin-2-ylamino)-N-(2-hydroxyethyl)-3-methoxybenzamide]	< 100 nM
COc1ccccc1Nc1nc(OC2CCCC2)c2c(-c3ccc4nc(C)oc4c3)c[nH]c2n1 [Example 103, 4-(cyclopentyloxy)-N-(2-methoxyphenyl)-5-(2-methylbenzo[d]oxazol-6-yl)-7H-pyrrolo[2,3-d]pyrimidin-2-amine]	100 to 400 nM
COc1cc(C(=O)N2CC2)ccc1Nc1nc(O[C@H]2CC[C@@](C)(O)CC2)c2c(-c3ccc4nc(C)oc4c3)c[nH]c2n1 [Example 315, aziridin-1-yl(4-(4-((1s,4s)-4-hydroxy-4-methylcyclohexyloxy)-5-(2-methylbenzo[d]oxazol-6-yl)-7H-pyrrolo[2,3-d]pyrimidin-2-ylamino)-3-methoxyphenyl) methanone]	< 100 nM
Cc1nc2ccc(-c3c[nH]c4nc(Nc5ccc(C(=O)N(C)C)cc5C)nc(OC5CCNCC5)c34)cc2o1 [Example 97, N,N,3-trimethyl-4-(5-(2-methylbenzo[d]oxazol-6-yl)-4-(piperidin-4-yloxy)-7H-pyrrolo [2,3-d]pyrimidin-2-ylamino) benzamide]	1000 to 10000 nM
CNC(=O)c1ccc(Nc2nc(OC3CCCC3)c3c(-c4cccc(NS(C)(=O)=O)c4)c[nH]c3n2)c(OC)c1 [Example 57, 4-(4-(cyclopentyloxy)-5-(3-(methylsulfonamido)phenyl)-7H-pyrrolo[2,3-d]pyrimidin-2-ylamino)-3-methoxy-N-methylbenzamide]	100 to 400 nM
COc1cc(C(=O)NC2COC2)ccc1Nc1nc(OC2CCC2)c2c(-c3cnn(C)c3)c[nH]c2n1 [Example 302, 4-(4-cyclobutoxy-5-(1-methyl-1H-pyrazol-4-yl)-7H-pyrrolo[2,3-d]pyrimidin-2-ylamino)-3-methoxy-N-(oxetan-3-yl) benzamide]	100 to 400 nM
CNC(=O)c1ccc(Nc2nc(O[C@H]3CC[C@H](O)CC3)c3c(-c4ccc5nc(C)oc5c4)c[nH]c3n2)c(OC)c1 [Example 137, 4-(4-((1r,4r)-4-hydroxycyclo-hexyloxy)-5-(2-methylbenzo[d]oxazol-6-yl)-7H-pyrrolo[2,3-d]pyrimidin-2-ylamino)-3-methoxy-N-methylbenzamide]	< 100 nM
CNC(=O)c1ccc(Nc2nc(OC3CCCC3)c3c(-c4ccc5c(ccn5C)c4)c[nH]c3n2)c(OC)c1 [Example 78, 4-(4-(cyclopentyloxy)-5-(1-methyl-1H-indol-5-yl)-7H-pyrrolo[2,3-d]pyrimidin-2-ylamino)-3-methoxy-N-methylbenzamide]	1000 to 10000 nM
CNC(=O)c1ccc(Nc2nc(OC3CCOCC3)c3c(-c4ccc5nc(C(C)C)oc5c4)c[nH]c3n2)c(OC)c1 [Example 170, 4-(5-(2-isopropylbenzo[d]oxazol-6-yl)-4-(tetrahydro-2H-pyran-4-yloxy)-7H-pyrrolo[2,3-d]pyrimidin-2-ylamino)-3-methoxy-N-methylbenzamide]	100 to 400 nM
Cc1nc2ccc(-c3c[nH]c4nc(Nc5ccc(C(=O)N(C)C)cc5C)nc(OC5CCOCC5)c34)cc2[nH]1 [Example 128, N,N,3-trimethyl-4-(5-(2-methyl-1H-benzo[d]imidazol-6-yl)-4-(tetrahydro-2H-pyran-4-yloxy)-7H-pyrrolo[2,3-d]pyrimidin-2-ylamino)benzamide]	< 100 nM
COc1cc(C(=O)N(C)CC#N)ccc1Nc1nc(OC2CCCC2)c2c(-c3ccc4nc(C)oc4c3)c[nH]c2n1 [Example 263, N-(cyanomethyl)-4-(4-(cyclo-pentyloxy)-5-(2-methylbenzo[d]oxazol-6-yl)-7H-pyrrolo[2,3-d]pyrimidin-2-ylamino)-3-methoxy-N-methylbenzamide]	< 100 nM
COc1cc(C(=O)NC2CCOCC2)ccc1Nc1nc(OC2CCCC2)c2c(-c3ccc4nc(C)oc4c3)c[nH]c2n1 [Example 252, 4-(4-(cyclopentyloxy)-5-(2-methylbenzo[d]oxazol-6-yl)-7H-pyrrolo[2,3-d]pyrimidin-2-ylamino)-3-methoxy-N-(tetrahydro-2H-pyran-4-yl)benzamide]	100 to 400 nM
CNC(=O)c1ccc(Nc2nc(NC3CC3)c3c(-c4ccc5nc(C)oc5c4)c[nH]c3n2)c(OC)c1 [Example 212, 4-(4-(cyclopropylamino)-5-(2-methylbenzo[d]oxazol-6-yl)-7H-pyrrolo[2,3-d]pyrimidin-2-ylamino)-3-methoxy-N-methylbenzamide]	100 to 400 nM
CNC(=O)c1ccc(Nc2nc(OC3CCCC3)c3c(-c4ccc(N(C)C)cc4)c[nH]c3n2)c(OC)c1 [Example 75, 4-(4-(cyclopentyloxy)-5-(4-(di-methylamino)phenyl)-7H-pyrrolo [2,3-d]pyrimidin-2-ylamino)-3-methoxy-N-methylbenzamide]	< 100 nM
COc1cc(C(=O)NCC2COC2)ccc1Nc1nc(OC2CCCC2)c2c(-c3ccc4nc(C)oc4c3)c[nH]c2n1 [Example 282, 4-(4-(cyclopentyloxy)-5-(2-methylbenzo[d]oxazol-6-yl)-7H-pyrrolo[2,3-d]pyrimidin-2-ylamino)-3-methoxy-N-(oxetan-3-ylmethyl)benzamide]	100 to 400 nM
COc1cc(C(=O)NCC2CCOCC2)ccc1Nc1nc(OC2CCCC2)c2c(-c3ccc4nc(C)oc4c3)c[nH]c2n1 [Example 243, 4-(4-(cyclopentyloxy)-5-(2-methylbenzo[d]oxazol-6-yl)-7H-pyrrolo[2,3-d]pyrimidin-2-ylamino)-3-methoxy-N-((tetrahydro-2H-pyran-4-yl)methyl)benzamide]	100 to 400 nM
COc1cc(C(=O)NC(C)(C)CO)ccc1Nc1nc(OC2CCCC2)c2c(-c3ccc4nc(C)oc4c3)c[nH]c2n1 [Example 234, 4-(4-(cyclopentyloxy)-5-(2-methylbenzo[d]oxazol-6-yl)-7H-pyrrolo[2,3-d]pyrimidin-2-ylamino)-N-(1-hydroxy-2-methylpropan-2-yl)-3-methoxybenzamide]	100 to 400 nM
Cc1nc2ccc(-c3c[nH]c4nc(Nc5ccc(C(=O)N(C)C)cc5C)nc(NC5CCOCC5)c34)cc2o1 [Example 69, N,N,3-trimethyl-4-(5-(2-methylbenzo[d]oxazol-6-yl)-4-(tetrahydro-2H-pyran-4-ylamino)-7H-pyrrolo[2,3-d]pyrimidin-2-ylamino)benzamide]	100 to 400 nM

Reference: US9346812B2, “Substituted pyrrolopyrimidine compounds, compositions thereof, and methods of treatment therewith” (Signal Pharmaceutical LLC, priority 2013, dated 2016)
